Read-outs that look alike come from different tables or passages of the source.

In assay [1] the test system is isometric twitch of the tibialis anterior muscle. As to the kind of experiment: Neuromuscular block after intravenous administration: isometric twitch of the tibialis anterior muscle in response to peroneal nerve stimulation, Rhesus monkeys. Type of assay: in vivo. As to conditions: Rhesus Monkey. From the text:
(§1) Trans, trans-2,2'-(trimethylenebis(carbonyloxytri- methylene))bis(1,2,3,4-tetrahydro-6,7,8-trimethoxy-2-methyl-1-(3,4,5-trimethoxybenzyl)isoquinolinium) dichloride (prepared as in Example 3) was examined by intravenous administration to cats and Rhesus monkeys, maintained by artificial ventilation and prepared for recording the isometric twitch of the tibialis anterior muscle in response to stimulation of peroneal nerve.

The test system is the same in assay [2]. Briefly: Neuromuscular block after intravenous administration: isometric twitch of the tibialis anterior muscle in response to peroneal nerve stimulation, cats. Type of assay: in vivo. As to conditions: Cat.
Excerpt: as §1

The conditions of assay [3]: cited from earlier work.
[4] abbreviates: intravenous, time from injection to 95% recovery.

For `COc1cc(CC2c3c(cc(OC)c(OC)c3OC)CC[N+]2(C)CCCOC(=O)CCCC(=O)OCCC[N+]2(C)CCc3cc(OC)c(OC)c(OC)c3C2Cc2cc(OC)c(OC)c(OC)c2)cc(OC)c1OC` (stereo not drawn) [Example 1, trans, trans-2,2'-(trimethylenebis(carbonyloxytrimethy-lene))bis(1,2,3,4-tetrahydro-6,7,8-trimethoxy-2-methyl-1-(3,4,5-trimethoxybenzyl)isoquinolinium) dichloride], the ED95 is 0.05 mg/kg in assay [1] (Macaca mulatta, intravenous administration, artificial ventilation, 4 animals) and 0.03 mg/kg in assay [2] (Felis catus, intravenous administration, artificial ventilation, 2 animals). Also, the Duration entry is “≃15^+ Minutes” in assay [1] (setting [4]) and “≃25 Minutes” in assay [2] (setting [4]).
`CC(=O)O[C@H]1C[C@@H]2CC[C@@H]3[C@H](CC[C@@]4(C)[C@H]3C[C@H]([N+]3(C)CCCCC3)[C@@H]4OC(C)=O)[C@@]2(C)C[C@@H]1[N+]1(C)CCCCC1` [pancuronium]: the “dose of agents most widely used clinically” value in assay [3] (in vivo) is 0.06 to 0.08 mg/kg.
Turning to `COc1cc2c3cc1Oc1cc(ccc1O)C[C@@H]1c4c(cc(OC)c(O)c4Oc4ccc(cc4)C[C@@H]3N(C)CC2)CC[N+]1(C)C` [d-tubocurarine], in assay [3] (clinical use, compared with intravenous paralysing dose of compounds of formula (I)), the “dose of agents most widely used clinically” value is 0.4 to 0.6 mg/kg.

The values are drawn from patent publication EP0080682A1, “Bisisoquinolinium compound, pharmaceutical compositions and synthesis” (THE WELLCOME FOUNDATION LIMITED, priority 1981, dated 1983).
